Consider 13 molecules from US9179674B2, “Macrocyclic picolinamide compounds with fungicidal activity” (DOW AGROSCIENCES LLC, priority 2013, dated 2015).

Molecules are shown by their SMILES.

Holding throughout (format): in vivo
One assay concerns Rhyncosporium secalis. The assay can be described thus: Barley Scald fungicidal activity (RHYNSE). The following applies: Hordeum vulgare, 24 h, 1 Day Protectant, read-out: Disease Control RHYNSE 1DP. As to the method:
(§1) Technical grades of materials were dissolved in acetone, which were then mixed with nine volumes of water containing 110 ppm Triton X-100. The fungicide solutions were applied onto wheat seedlings using an automated booth sprayer to run-off. All sprayed plants were allowed to air dry prior to further handling. All fungicides were evaluated using the aforementioned method for their activity vs. all target diseases. Wheat leaf blotch and brown rust activity were also evaluated using track spray applications, in which case the fungicides were formulated as EC formulations, containing 0.1% Trycol 5941 in the spray solutions. Wheat plants (variety Yuma) were grown from seed in a greenhouse in 50% mineral soil/50% soil-less Metro mix until the first leaf was fully emerged, with 7-10 seedlings per pot. These plants were inoculated with an aqueous spore suspension of Septoria tritici either prior to or after fungicide treatments. After inoculation the plants were kept in 100% relative humidity (one day in a dark dew chamber followed by two to three days in a lighted dew chamber at 20° C.) to permit spores to germinate and infect the leaf. The plants were then transferred to a greenhouse set at 20° C. for disease to develop. When disease symptoms were fully expressed on the 1st leaves of untreated plants, infection levels were assessed on a scale of 0 to 100 percent disease severity. Percent disease control was calculated using the ratio of disease severity on treated plants relative to untreated plants. Evaluation of Fungicidal Activity: Barley Scald (Rhyncosporium secalis; Bayer Code […]) Barley seedlings (variety Harrington) were propagated in soil-less Metro mix, with each pot having 8 to 12 plants, and used in the test when first leaf was fully emerged. Test plants were inoculated by an aqueous spore suspension of Rhyncosporium secalis 24 hr after fungicide treatments. After inoculation the plants were kept in a dew room at 20° C. with 100% relative humidity for 48 hr. The plants were then transferred to a greenhouse set at 20° C. for disease to develop. Fungicide formulation, application and disease assessment on the sprayed leaves followed the procedures as described in the Example A.

A further assay concerns Leptosphaeria nodorum. The assay can be described thus: Wheat Glume Blotch fungicidal activity (LEPTNO). Conditions: 100 ppm, 1 Day Protectant. Here is the method: Technical grades of materials were dissolved in acetone, which were then mixed with nine volumes of water containing 110 ppm Triton X-100. The fungicide solutions were applied onto wheat seedlings using an automated booth sprayer to run-off. All sprayed plants were allowed to air dry prior to further handling. All fungicides were evaluated using the aforementioned method for their activity vs. all target diseases. Wheat leaf blotch and brown rust activity were also evaluated using track spray applications, in which case the fungicides were formulated as EC formulations, containing 0.1% Trycol 5941 in the spray solutions. Wheat plants (variety Yuma) were grown from seed in a greenhouse in 50% mineral soil/50% soil-less Metro mix until the first leaf was fully emerged, with 7-10 seedlings per pot. These plants were inoculated with an aqueous spore suspension of Septoria tritici either prior to or after fungicide treatments. After inoculation the plants were kept in 100% relative humidity (one day in a dark dew chamber followed by two to three days in a lighted dew chamber at 20° C.) to permit spores to germinate and infect the leaf. The plants were then transferred to a greenhouse set at 20° C. for disease to develop. When disease symptoms were fully expressed on the 1st leaves of untreated plants, infection levels were assessed on a scale of 0 to 100 percent disease severity. Percent disease control was calculated using the ratio of disease severity on treated plants relative to untreated plants. Evaluation of Fungicidal Activity: Wheat Glume Blotch (Leptosphaeria nodorum; Bayer code […]) Wheat plants (variety Yuma) were grown from seed in a greenhouse in 50% mineral soil/50% soil-less Metro mix until the first leaf was fully emerged, with 7-10 seedlings per pot. These plants were inoculated with an aqueous spore suspension of Leptosphaeria nodorum 24 hr after fungicide treatments. After inoculation the plants were kept in 100% relative humidity (one day in a dark dew chamber followed by two days in a lighted dew chamber at 20° C.) to permit spores to germinate and infect the leaf. The plants were then transferred to a greenhouse set at 20° C. for disease to develop. Fungicide formulation, application and disease assessment followed the procedures as described in the Example A.

Assay [1] concerns Blumeria graminis f.sp. hordei. Nature of the assay: Barley Powdery Mildew fungicidal activity (ERYSGH). Conditions: 24 h, 1 Day Protectant, read-out: Disease Control ERYSGH 1DP. As to the method: as §1, with “Powdery Mildew (Blumeria graminis fsp. hordei; Synonym: Erysiphe graminis fsp. hordei;” for “Scald (Rhyncosporium secalis;”, “dusting with infected stock plants” for “an aqueous spore suspension of Rhyncosporium secalis”, “in” for “in a dew room at 20° C. with 100% relative humidity for 48 hr. The plants were then transferred to”

Take `COc1ccnc(C(=O)N[C@H]2COC[C@H](Cc3ccc(Cl)cc3Cl)[C@@H](OC(=O)C(C)C)[C@H](C)OC2=O)c1OC(C)=O` [Compound F73]: the pest or weed control at 100 ppm in the assay on Rhyncosporium secalis lay in the range of 80 to 100%. As to `COc1ccnc(C(=O)N[C@H]2COC[C@H](Cc3ccc(C)cc3)[C@@H](OCC(C)C)[C@H](C)OC2=O)c1OC(C)=O` [Compound F80], the “Disease Control LEPTNO 1DP” value with Leptosphaeria nodorum is recorded as “A (80-100)”. In assay [1], the pest or weed control at 100 ppm lay in the range of 80 to 100%. Take `COc1ccnc(C(=O)N[C@H]2COC[C@H](CCc3ccccc3)[C@@H](OCC(C)C)[C@H](C)OC2=O)c1OCOC(C)=O` [Compound F82]: the pest or weed control at 100 ppm in the assay on Rhyncosporium secalis lay in the range of 80 to 100%. Regarding `COc1ccnc(C(=O)N[C@H]2COC[C@H](Cc3cccc4ccccc34)[C@@H](OC(=O)C(C)C)[C@H](C)OC2=O)c1OCOC(C)=O` [Compound F83, (3S,6S,7R,8S)-3-(3-(acetoxymethoxy)-4-methoxypicolin-amido)-6-methyl-8-(naphthalen-1-ylmethyl)-4-oxo-1,5-dioxonan-7-yl isobutyrate], the “Disease Control LEPTNO 1DP” value in the assay with Leptosphaeria nodorum is listed as “A (80-100)”. For the same molecule, the pest or weed control at 100 ppm (in the assay on Rhyncosporium secalis; in assay [1]) was 80 to 100% in each case. As for `COc1ccnc(C(=O)N[C@H]2COC[C@H](Cc3ccc(F)cc3)[C@@H](OCC(C)C)[C@H](C)OC2=O)c1OCOC(C)=O` [Compound F96], the “Disease Control LEPTNO 1DP” value in the assay with Leptosphaeria nodorum was “A (80-100)”. In addition, the pest or weed control at 100 ppm in assay [1] lay in the range of 80 to 100%. Consider `COc1ccnc(C(=O)N[C@H]2COC[C@H](CC(F)(F)F)[C@@H](OC3CCCC3)[C@H](C)OC2=O)c1OCOC(C)=O` [Compound F105], for which the pest or weed control at 100 ppm with Rhyncosporium secalis fell in the range of 80 to 100%. For `COc1ccnc(C(=O)N[C@H]2COC[C@H](CCC(C)C)[C@@H](OCCCC(F)(F)F)[C@H](C)OC2=O)c1OCOC(C)=O` [Compound F107], the pest or weed control at 100 ppm in the assay on Rhyncosporium secalis was in the range of 80 to 100%; in assay [1], 0 to 80%. Taken in the same sequence, the figures for `COc1ccnc(C(=O)N[C@H]2COC[C@H](CCC(C)C)[C@@H](OC(=O)C3CC3)[C@H](C)OC2=O)c1OCOC(C)=O` [Compound F108] were 80 to 100% and 80 to 100%. Regarding `COc1ccnc(C(=O)N[C@H]2COC[C@H](Cc3ccc(Cl)cc3Cl)[C@@H](OC(=O)C(C)C)[C@H](C)OC2=O)c1OCOC(C)=O` [Compound F110], in the assay with Rhyncosporium secalis, the pest or weed control at 100 ppm fell in the range of 80 to 100%. As to `COc1ccnc(C(=O)N[C@H]2COC[C@H](CC3CCCC3)[C@@H](OC(=O)C(C)C)[C@H](C)OC2=O)c1OCOC(C)=O` [Compound F114], the pest or weed control at 100 ppm (with Rhyncosporium secalis; in assay [1]) was 80 to 100% throughout.

In the case of `COc1ccnc(C(=O)N[C@H]2COC[C@H](Cc3ccc(C)cc3)[C@@H](OCC(C)C)[C@H](C)OC2=O)c1OCOC(C)=O` [Compound F117], the “Disease Control LEPTNO 1DP” value in the assay on Leptosphaeria nodorum was “A (80-100)”. The pest or weed control at 100 ppm in assay [1] lay within 80 to 100%.

Take `CCCCCO[C@@H]1[C@@H](Cc2ccc(Cl)cc2Cl)COC[C@H](NC(=O)c2nccc(OC)c2OCOC(=O)COCC)C(=O)O[C@H]1C` [Compound F122]: the “Disease Control LEPTNO 1DP” value in the assay with Leptosphaeria nodorum was “A (80-100)”. Besides, the pest or weed control at 100 ppm (in the assay with Rhyncosporium secalis; in assay [1]) was 80 to 100% each time.

On to `CCCCCO[C@@H]1[C@@H](Cc2ccc(Cl)cc2Cl)COC[C@H](NC(=O)c2nccc(OC)c2OC(=O)CCOC)C(=O)O[C@H]1C` [Compound F123], for which, in the assay with Leptosphaeria nodorum, the “Disease Control LEPTNO 1DP” value is given as “A (80-100)”. The pest or weed control at 100 ppm (in the assay with Rhyncosporium secalis; in assay [1]) was 80 to 100% each time.
